Here are results for eight sequences from patent US6464978B1, “Vaccination and methods against multiple sclerosis resulting from pathogenic responses by specific T cell populations” (The Immune Response Corporation, priority 1989, dated 2002).

The subject of test [1] is EAE. Put plainly: Vaccination against EAE in the Lewis rat model, daily clinical scoring after MBP challenge. The test is classed as in vivo, Lewis rats. Further details: key to EAE clinical score, Days After Challenge 18 / EAE clinical score, Days After Challenge 10 / EAE clinical score, Days After Challenge 11 / EAE clinical score, Days After Challenge 12 / EAE clinical score, Days After Challenge 13 / EAE clinical score, Days After Challenge 14 / EAE clinical score, Days After Challenge 15 / EAE clinical score, Days After Challenge 16 / EAE clinical score, Days After Challenge 17 / EAE clinical score, Days After Challenge 19 / EAE clinical score, Days After Challenge 20: —: no signs; 1: limp tail; 2: hind leg weakness; 3: hind leg paralysis. Particulars: for EAE clinical score, Days After Challenge 10: day 10; for EAE clinical score, Days After Challenge 11: day 11; for EAE clinical score, Days After Challenge 12: day 12; for EAE clinical score, Days After Challenge 13: day 13; for EAE clinical score, Days After Challenge 14: day 14; for EAE clinical score, Days After Challenge 15: day 15; for EAE clinical score, Days After Challenge 16: day 16; for EAE clinical score, Days After Challenge 17: day 17; for EAE clinical score, Days After Challenge 18: day 18. The method, then: Female Lewis rats, (Charles River Laboratories, Raleigh-Durham, N.C.) were immunized in each hind foot pad with 50 μg of guinea pig myelin basic protein emulsified in complete Freund's adjuvant. The first signs of disease were typically observed 9-11 days post-immunization. Disease severity is scored on a three point scale as follows: 1=limp tail; 2=hind leg weakness; 3=hind leg paralysis. Following a disease course of approximately four to six days, most rats spontaneously recovered and were refractory to subsequent EAE induction.
[…]. KLH-VDJ conjugate was administered at a dose equivalent to 10 μg of KLH per rat. Twenty-nine days later each rat was challenged with 50 μg of guinea pig myelin basic protein in complete Freund's adjuvant in the front footpads. Animals were monitored daily beginning at day 9 for clinical, signs of EAE and were scored as described above.
The preparation, administration and evaluation of these vaccines were conducted as described in Examples I through III with the following exceptions: 50 μg of the individual VDJ peptides were incorporated into vaccine formulations containing CFA; neither vaccinations in IFA nor vaccinations with peptides conjugated to KLH were conducted. Control animals were untreated prior to MBP challenge as in Example III or were vaccinated with emulsions of PBS and CFA to assess the protective effect of adjuvant alone. […]

Test [2] relates to EAE. The test is described as follows: Histologic examination of the CNS of vaccinated, MBP-challenged rats. Particulars: Lewis rats, 50 μg peptide in CFA, MBP challenge. The class given is in vivo. The source says:
Disease was characterized by severe paralysis and wasting, persisted for 4 to 6 days and spontaneously remitted.
Even sub-clinical signs of disease were abrogated.

The mark [3] stands for this setting: Lewis rats, 50 μg peptide in CFA, MBP challenge.
[4] abbreviates: one rat per line, 50 μg JαTA39 peptide in CFA.
Where [5] appears, read: one rat per line, 50 μg Vβ8 peptide in CFA.
Setting [6] is: one rat per line, 5 μg VDJ or KLH-VDJ equivalent to 10 μg KLH, in IFA or CFA, hind footpads, MBP challenge 29 days later.
Where [7] appears, read: one rat per line, 50 μg rat VDJ peptide in CFA.

Values joined by “and” are separate entries in the source; they are usually repeats but may differ in a detail not shown here. Identical values can stand only once. “Also recorded” adds a separate entry of the source.

For RFGAGTRLTVK [IR5], in the test with EAE [1] (setting [3]), the “effectiveness of vaccination compared with other peptides” value is listed as “more effective than those observed with the mouse VDJ peptide or the Vβ8 peptide”; the “onset, severity and duration of EAE” value is reported as “in the third, disease onset was markedly delayed”; the “protection against clinical EAE (animals protected)” value (from here on “protection against clinical EAE”) is “Two of three animals were totally protected”. In addition, in the test on EAE [1] (setting [4]), the “EAE clinical score, Days After Challenge 10” value was “—”; the “EAE clinical score, Days After Challenge 11” value is given as “—”; the “EAE clinical score, Days After Challenge 12” value is listed as “—”; the “EAE clinical score, Days After Challenge 13” value is “—”. In addition, in the test with EAE [1] (setting [4]), the “EAE clinical score, Days After Challenge 14” value is reported as “—”; the “EAE clinical score, Days After Challenge 15” value is 2 and — (2×); the “EAE clinical score, Days After Challenge 16” value was 1 and — (2×); the “EAE clinical score, Days After Challenge 17” value is 1 and — (2×). In addition, the “EAE clinical score, Days After Challenge 18” value in the test on EAE [1] (setting [4]) was 1 and — (2×). In the test on EAE [1] (day 19, one rat per line, 50 μg JαTA39 peptide in CFA), the “EAE clinical score, Days After Challenge 19” value is 1 and — (2×). Further, the “EAE clinical score, Days After Challenge 20” value with EAE [1] (day 20, one rat per line, 50 μg JαTA39 peptide in CFA) is on record as “—”. Moreover, the “histologic lesions / T cell infiltration of the CNS” value in the test on EAE [2] is “the two animals which were completely protected showed no histologic evidence of T cell infiltration of the CNS”.

DMGHGLRLIHYSYDVNSTEK [IR7]: in the test with EAE [1] (setting [3]), the “onset, severity and duration of EAE” value was “Delayed onset as well as decreased severity and duration of disease was observed in one animal”; the “protection against clinical EAE” value is “One animal was completely protected”. Besides, in the test with EAE [1] (setting [5]), the “EAE clinical score, Days After Challenge 10” value was “—”; the “EAE clinical score, Days After Challenge 11” value was “—”; the “EAE clinical score, Days After Challenge 12” value is 1 and — (2×); the “EAE clinical score, Days After Challenge 13” value was 2 and — (2×). For the same sequence, in the test on EAE [1] (setting [5]), the “EAE clinical score, Days After Challenge 14” value is 3 and 1 and —; the “EAE clinical score, Days After Challenge 15” value is 3 and 1 and —; the “EAE clinical score, Days After Challenge 16” value was 3 and — (2×); the “EAE clinical score, Days After Challenge 17” value was “—”. Also, in the test on EAE [1] (setting [5]), the “EAE clinical score, Days After Challenge 18” value is reported as “—”.

On to “SGDAGGGYE [VDJ (CFA), free VDJ peptide in PBS emulsified with complete Freund's adjuvant]”, for which, in the test with EAE [1] (setting [6]), the “EAE clinical score, Days After Challenge 10” value was “—”; the “EAE clinical score, Days After Challenge 11” value is reported as “—”; the “EAE clinical score, Days After Challenge 12” value is “—”; the “EAE clinical score, Days After Challenge 13” value was 1 and — (2×). Besides, in the test with EAE [1] (setting [6]), the “EAE clinical score, Days After Challenge 14” value was 3 and 1 and —; the “EAE clinical score, Days After Challenge 15” value is 3 and 1 and —; the “EAE clinical score, Days After Challenge 16” value is 3 and 1 and —; the “EAE clinical score, Days After Challenge 17” value was 2 and — (2×). In the test on EAE [1] (setting [6]), the “EAE clinical score, Days After Challenge 18” value is on record as “—”.

In the case of “C A S S D - S G N - V L Y F G E G S R (CASSDSGNVLYFGEGSR) [IR3]”, in the test on EAE [1] (setting [3]), the “onset, severity and duration of EAE” value is recorded as “delays in onset were observed in some; also recorded: others showed both delayed onset as well as decreased severity and/or duration of disease”. For the same sequence, in the test with EAE [1] (setting [7]), the “EAE clinical score, Days After Challenge 10” value was 1 and — (2×); the “EAE clinical score, Days After Challenge 11” value was 3 and — (2×); the “EAE clinical score, Days After Challenge 12” value was 3 and 2 and —; the “EAE clinical score, Days After Challenge 13” value was 3 (2×) and —. Also, in the test on EAE [1] (setting [7]), the “EAE clinical score, Days After Challenge 14” value was 2 and 3 and —; the “EAE clinical score, Days After Challenge 15” value was “—”; the “EAE clinical score, Days After Challenge 16” value is reported as “—”; the “EAE clinical score, Days After Challenge 17” value was “—”. The “EAE clinical score, Days After Challenge 18” value with EAE [1] (setting [7]) is reported as “—”.

For the sequence “SGDAGGGYE [VDJ (IFA), free VDJ peptide in PBS emulsified with incomplete Freund's adjuvant]”, in the test on EAE [1] (setting [6]), the “EAE clinical score, Days After Challenge 10” value is “—”; the “EAE clinical score, Days After Challenge 11” value is “—”; the “EAE clinical score, Days After Challenge 12” value was 2 and 1 and —; the “EAE clinical score, Days After Challenge 13” value was 3. In the test with EAE [1] (setting [6]), the “EAE clinical score, Days After Challenge 14” value is 3; the “EAE clinical score, Days After Challenge 15” value was 3; the “EAE clinical score, Days After Challenge 16” value was “— and 2 (2×)”; the “EAE clinical score, Days After Challenge 17” value is recorded as “—”. In the test with EAE [1] (setting [6]), the “EAE clinical score, Days After Challenge 18” value is on record as “—”.

As for “C A S S D - S G N T E V F F G K (CASSDSGNTEVFFGK) [IR2]”, the “onset, severity and duration of EAE” value in the test with EAE [1] (setting [3]) is on record as “delays in onset were observed in some; also recorded: others showed both delayed onset as well as decreased severity and/or duration of disease”. Moreover, in the test with EAE [1] (setting [7]), the “EAE clinical score, Days After Challenge 10” value is on record as “—”; the “EAE clinical score, Days After Challenge 11” value is “—”; the “EAE clinical score, Days After Challenge 12” value was 1 and — (2×); the “EAE clinical score, Days After Challenge 13” value is 3 and — (2×). Besides, in the test with EAE [1] (setting [7]), the “EAE clinical score, Days After Challenge 14” value is 3 and 2 and 1; the “EAE clinical score, Days After Challenge 15” value was 3 and 2 and —; the “EAE clinical score, Days After Challenge 16” value is “— (2×) and 3”; the “EAE clinical score, Days After Challenge 17” value was “— (2×) and 3”. Moreover, the “EAE clinical score, Days After Challenge 18” value in the test with EAE [1] (setting [7]) is “—”.

With A S S D - S S N T E (ASSDSSNTE) [IR9b], in the test with EAE [1] (setting [3]), the “protection against clinical EAE” value is recorded as “complete protection in all four animals”. In addition, in the test with EAE [1] (setting [7]), the “EAE clinical score, Days After Challenge 10” value is given as “—”; the “EAE clinical score, Days After Challenge 11” value is reported as “—”; the “EAE clinical score, Days After Challenge 12” value is listed as “—”; the “EAE clinical score, Days After Challenge 13” value is “—”. In the test on EAE [1] (setting [7]), the “EAE clinical score, Days After Challenge 14” value was “—”; the “EAE clinical score, Days After Challenge 15” value is given as “—”; the “EAE clinical score, Days After Challenge 16” value is “—”; the “EAE clinical score, Days After Challenge 17” value was “—”. In addition, in the test with EAE [1] (setting [7]), the “EAE clinical score, Days After Challenge 18” value is “—”. In the test with EAE [2], the “histologic lesions / T cell infiltration of the CNS” value is reported as “no histologic lesions characteristic of disease were found in any of the four animals”.

In the case of “C A S S D - S S N T E V F F G K (CASSDSSNTEVFFGK) [IR1]”, the “onset, severity and duration of EAE” value in the test with EAE [1] (setting [3]) is “delays in onset were observed in some; also recorded: others showed both delayed onset as well as decreased severity and/or duration of disease”. In the test on EAE [1] (setting [7]), the “EAE clinical score, Days After Challenge 10” value is “—”; the “EAE clinical score, Days After Challenge 11” value is “—”; the “EAE clinical score, Days After Challenge 12” value was “—”; the “EAE clinical score, Days After Challenge 13” value was 2 and — and 1. In the test with EAE [1] (setting [7]), the “EAE clinical score, Days After Challenge 14” value was 1; the “EAE clinical score, Days After Challenge 15” value is “— and 3 and 1”; the “EAE clinical score, Days After Challenge 16” value was “— (2×) and 1”; the “EAE clinical score, Days After Challenge 17” value is listed as “—”. Besides, the “EAE clinical score, Days After Challenge 18” value with EAE [1] (setting [7]) is recorded as “—”.
